Columns and labels:
Assay in all cases: selective drug sensitivity score (sDSS, relative to normal bone marrow) (sDSS (score)); higher = more potent and effective on the cell line relative to normal bone marrow cells
Conditions in all cases: 72 h
ALL-PO = system: ALL-PO
CCRF-HSB2 = system: CCRF-HSB2
COG-LL-317 = system: COG-LL-317
COG-LL-319h = system: COG-LL-319h
COG-LL-332h = system: COG-LL-332h
HAL-01 = system: HAL-01
JURKAT = system: JURKAT
KARPAS-45 = system: KARPAS-45
LC4-1 = system: LC4-1
MHH-CALL-3 = system: MHH-CALL-3
MN-60 = system: MN-60
MOLT-4 = system: MOLT-4
NALL-1 = system: NALL-1
P12-ICHIKAWA = system: P12-ICHIKAWA
P30-OHKUBO = system: P30-OHKUBO
PEER = system: PEER
SEM cells = system: SEM cells
SUP-B15 = system: SUP-B15
TANOUE = system: TANOUE
TMD5 = system: TMD5
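Note: ALL cell lines in 384-well plates, five doses spanning 10,000-fold, each plate scaled between vehicle and 100 µmol/L benzalkonium chloride controls, sDSS an adapted area-under-curve metric.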

SMILES	selective drug sensitivity score (ALL-PO)	selective drug sensitivity score (CCRF-HSB2)	selective drug sensitivity score (COG-LL-317)	selective drug sensitivity score (COG-LL-319h)	selective drug sensitivity score (COG-LL-332h)	selective drug sensitivity score (HAL-01)	selective drug sensitivity score (JURKAT)	selective drug sensitivity score (KARPAS-45)	selective drug sensitivity score (LC4-1)	selective drug sensitivity score (MHH-CALL-3)	selective drug sensitivity score (MN-60)	selective drug sensitivity score (MOLT-4)	selective drug sensitivity score (NALL-1)	selective drug sensitivity score (P12-ICHIKAWA)	selective drug sensitivity score (P30-OHKUBO)	selective drug sensitivity score (PEER)	selective drug sensitivity score (SEM cells)	selective drug sensitivity score (SUP-B15)	selective drug sensitivity score (TANOUE)	selective drug sensitivity score (TMD5)
O=C(Nc1cnn2ccc(N3CCC[C@@H]3c3cc(F)ccc3F)nc12)N1CC[C@H](O)C1 [Larotrectinib] (top concentration 1000 nM)	-0.62	-0.62	-0.62	3.78	-0.62	0.68	-0.62	-0.62	1.28	-0.62	-0.62	-0.62	-0.62	-0.62	-0.52	-0.62	-0.62	0.08	-0.62	-0.62
C[C@]1(O)C[C@@H](c2nc(-c3ccc4ccc(-c5ccccc5)nc4c3)c3c(N)nccn32)C1 [Linsitinib] (top concentration 10000 nM)	3.92	-2.28	-3.18	-1.78	-2.78	-1.78	-3.18	-3.18	0.92	-3.18	-3.18	-2.58	-0.08	-3.18	-0.68	-0.98	0.62	-3.18	-3.18	1.62
O=C(O)CC[C@H]1CC[C@@](c2cc(F)ccc2F)(S(=O)(=O)c2ccc(Cl)cc2)CC1 [MK-0752] (top concentration 1000 nM)	0	1	0	0	0	3.5	0	0	0	0	0	0	8.6	0	2.5	0	0	0	0	0
CNC(=O)[C@@H](NC(=O)[C@H](CC(C)C)[C@H](O)C(=O)NO)C(C)(C)C [Marimastat] (top concentration 10000 nM)	5.22	-0.78	-1.28	-1.28	-0.18	-1.28	2.42	3.32	-1.28	-1.28	1.02	0.62	4.12	1.22	-0.18	1.42	-1.08	4.52	-1.28	3.72
Clc1ccc(C(c2ccccc2Cl)C(Cl)Cl)cc1 (stereo not given) [Mitotane] (top concentration 10000 nM)	-0.08	-0.08	-0.08	-0.08	0.92	0.62	-0.08	0.02	-0.08	-0.08	-0.08	-0.08	-0.08	-0.08	-0.08	-0.08	-0.08	-0.08	-0.08	-0.08
CCS(=O)(=O)Nc1ccc(Oc2ccc(F)cc2F)c(-c2cn(C)c(=O)c3[nH]ccc23)c1 [Mivebresib] (top concentration 10000 nM)	6.1	1.3	11.5	7.7	-3.9	1.1	3.55e-15	14	8.9	17.2	8.2	-3.5	0.6	9.9	15.3	1.1	16	7.8	-12	-5.7
CN1C(=O)N[C@H](Cc2c[nH]c3c(Cl)cccc23)C1=O [Necrostatin_2] (top concentration 10000 nM)	-0.08	-0.08	-0.08	-0.08	-0.08	-0.08	-0.08	-0.08	-0.08	-0.08	-0.08	-0.08	-0.08	-0.08	-0.08	-0.08	-0.08	-0.08	-0.08	-0.08
O=c1ncn2nc(Sc3ccc(F)cc3F)ccc2c1-c1c(Cl)cccc1Cl [Neflamapimod] (top concentration 10000 nM)	5	0.5	1.7	0	0.3	2.5	1.7	0.1	0.9	0	1	0	2.1	1	2.2	2.3	1.5	0.5	1.4	0
CC(O)c1cc(C(=O)N[C@@H](C)Cn2ccc(-c3ccc(C#N)c(Cl)c3)n2)n[nH]1 (stereo not given in full) [ODM-201] (top concentration 2500 nM)	0.52	1.62	1.22	10.6	1.52	1.42	0.72	2.32	1.62	0.82	-0.28	-0.18	-0.28	0.22	0.22	1.02	-0.28	4.22	2.32	-0.28

— the supplement of paper PMC8967900
